# Results published in patent US11951088B2, “Fatty acid analogs and their use in the treatment of conditions related to metabolic syndrome” (Epitracker, Inc., priority 2017, dated 2024).
# Like-named read-outs stand apart in the source and are kept apart here.
# Tests used:
# human PPAR-γ = target: T1, human PPAR-γ (Homo sapiens, UniProt P37231); experiment: PathHunter NHR Protein Interaction assay, PPAR-γ agonist activity (CHO cells)
# T1 sequence (P37231 1-505): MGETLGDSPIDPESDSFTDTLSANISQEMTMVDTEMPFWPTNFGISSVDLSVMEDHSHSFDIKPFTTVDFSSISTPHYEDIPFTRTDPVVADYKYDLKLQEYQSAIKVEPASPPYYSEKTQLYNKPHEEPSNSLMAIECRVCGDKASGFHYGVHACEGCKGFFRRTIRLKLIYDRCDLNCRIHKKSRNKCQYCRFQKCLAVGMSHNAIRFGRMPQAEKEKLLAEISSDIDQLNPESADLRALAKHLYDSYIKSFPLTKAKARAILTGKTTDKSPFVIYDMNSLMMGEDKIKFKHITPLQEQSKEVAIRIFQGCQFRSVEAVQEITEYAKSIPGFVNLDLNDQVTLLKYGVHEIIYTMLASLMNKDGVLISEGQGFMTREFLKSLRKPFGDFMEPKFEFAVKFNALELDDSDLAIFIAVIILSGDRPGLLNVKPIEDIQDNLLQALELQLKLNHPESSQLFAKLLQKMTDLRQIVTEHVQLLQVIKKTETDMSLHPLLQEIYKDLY
# Experimental: (§1) PPAR-α, PPAR-δ, and PPAR-γ agonist activities were measured using PathHunter Nuclear Hormone Receptor (NHR) Protein Interaction (Pro) assays (DiscoverX, Freemont, California). Briefly, Chinese hamster ovary (CHO) cell lines were used to monitor the activation of PPAR-α, PPAR-δ, and PPAR-γ in a homogenous, non-imaging assay format using Enzyme Fragment Complementation (EFC). The NHR Pro assay was based on detection of protein-protein interactions between activated, full length PPAR-α, PPAR-δ, and PPAR-γ proteins and a nuclear fusion protein containing Steroid Receptor Co-activator Peptide (SRCP) domains with one or more canonical LXXLL interaction motifs. PPAR-α, PPAR-δ, and PPAR-γ were tagged with the ProLink component of the EFC assay system, and the SRCP domain was fused to the enzyme acceptor component (EA) expressed in the nucleus. When bound by ligand, PPAR-α, PPAR-δ, or PPAR-γ migrated to the nucleus and recruited the SRCP domain, whereby complementation occurred, generating a unit of active β-Galactosidase (β-Gal) and production of chemiluminescent signal. […] Percentage activity was calculated using the following formula: % Activity=100%×(mean RLU of test sample−mean RLU of vehicle control)/(mean MAX control ligand−mean RLU of vehicle control).
# human PPAR-α = target: T2, human PPAR-α (Homo sapiens, UniProt Q07869); experiment: PathHunter NHR Protein Interaction assay, PPAR-α agonist activity (CHO cells)
# T2 sequence (Q07869 1-468): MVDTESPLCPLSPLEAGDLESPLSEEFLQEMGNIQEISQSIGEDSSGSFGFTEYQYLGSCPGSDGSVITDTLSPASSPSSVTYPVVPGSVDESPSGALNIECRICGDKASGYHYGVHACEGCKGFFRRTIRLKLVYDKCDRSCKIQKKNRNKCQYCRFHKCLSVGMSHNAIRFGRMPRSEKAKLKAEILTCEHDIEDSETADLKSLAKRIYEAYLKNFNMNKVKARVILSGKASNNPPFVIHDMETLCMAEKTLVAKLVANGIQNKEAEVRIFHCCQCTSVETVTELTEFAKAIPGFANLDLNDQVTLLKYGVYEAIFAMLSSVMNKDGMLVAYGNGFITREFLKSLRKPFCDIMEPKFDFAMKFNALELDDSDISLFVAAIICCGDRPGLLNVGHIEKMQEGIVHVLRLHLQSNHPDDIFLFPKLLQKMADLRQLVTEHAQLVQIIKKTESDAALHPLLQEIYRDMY
# Experimental: as §1
# [1] = 24-hour plasma pharmacokinetics after single oral dose in rats; type: in vivo; settings: for bioavailability: po
# [2] = system: 12 human primary cell-based systems; experiment: BioMAP Diversity Plus panel, biomarker readouts; settings: compared to C15:0-treated systems and non-treated controls; 740 nm and 2.2, 6.7 and 20 μM
# From the text: This study examined and compared activities of a saturated free fatty acid (C15:0) and three substituents (2-methyl-, 2,2-dimethyl-, and 1-tetrazole-C15:0) across 12 human primary cell-based systems as part of DiscoverX's BioMAP Diversity Plus program. These systems are designed to model complex human tissue and disease biology of the vasculature, skin, lung, and inflammatory tissues. Quantitative measurements of biomarker activities across this broad panel, along with comparative analysis of biological activities of known bioactive agents were used to predict and compare the efficacy and function of the four compounds.
# BioMAP panels consist of human primary cell-based systems designed to model different aspects of the human body in an in vitro format. The 12 systems in the Diversity PLUS panel allow test agent characterization in an unbiased way across a broad set of systems modeling various human disease states. BioMAP systems are constructed with one or more primary cell types from healthy human donors, with stimuli (such as cytokines or growth factors) added to capture relevant signaling networks that naturally occur in human tissue or pathological conditions. Vascular biology is modeled in both a Th1 (3C system) and a Th2 (4H system) inflammatory environment, as well as in a Th1 inflammatory state specific to arterial smooth muscle cells (CASM3C system). Additional systems recapitulate aspects of the systemic immune response including monocyte-driven Th1 inflammation (LPS system) or T cell stimulation (SAg system), chronic Th1 inflammation driven by macrophage activation (lMphg system) and the T cell-dependent activation of B cells that occurs in germinal centers (BT system). The BE3C system (Th1) and the BF4T system (Th2) represent airway inflammation of the lung, while the MyoF system models myofibroblast-lung tissue remodeling. Lastly, skin biology is addressed in the KF3CT system modeling Th1 cutaneous inflammation and the HDF3CGF system modeling wound healing.
# Each test agent generates a signature BioMAP profile that is created from the changes in protein biomarker readouts within individual system environments. Biomarker readouts (7-17 per system) are selected for therapeutic and biological relevance, are predictive for disease outcomes or specific drug effects and are validated using agents with known mechanism of action (MoA). Each readout is measured quantitatively by immune-based methods that detect protein (e.g., ELISA) or functional assays that measure proliferation and viability. BioMAP readouts are diverse and include cell surface receptors, cytokines, chemokines, matrix molecules and enzymes.
# human PPAR-δ = target: T3, human PPAR-δ (Homo sapiens, UniProt Q03181); experiment: PathHunter NHR Protein Interaction assay, PPAR-δ agonist activity (CHO cells)
# T3 sequence (Q03181 1-441): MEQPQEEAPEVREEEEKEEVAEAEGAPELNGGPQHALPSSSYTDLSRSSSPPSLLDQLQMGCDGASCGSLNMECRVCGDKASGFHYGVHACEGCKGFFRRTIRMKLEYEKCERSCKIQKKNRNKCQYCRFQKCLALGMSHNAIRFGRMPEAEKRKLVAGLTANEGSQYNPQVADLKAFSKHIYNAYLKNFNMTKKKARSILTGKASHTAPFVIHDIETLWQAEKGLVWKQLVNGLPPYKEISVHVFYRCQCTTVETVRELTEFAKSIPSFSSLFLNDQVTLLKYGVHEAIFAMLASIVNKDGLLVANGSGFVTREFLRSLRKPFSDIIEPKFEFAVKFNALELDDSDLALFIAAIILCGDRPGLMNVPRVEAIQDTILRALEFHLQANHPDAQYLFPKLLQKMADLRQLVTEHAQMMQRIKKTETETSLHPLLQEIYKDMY
# Experimental: as §1
# [3] = system: C57BL/6J mice fed a high fat diet; experiment: diet-induced obese mice treated daily by gastric gavage for 12 weeks; type: in vivo; settings: for Cholesterol / Glucose / IL-6 / Insulin / LDL-C / MCP-1 / TNF-α: Day 84, 6 h fasted
# Experimental: Forty C57BL/6J mice were fed a high fat diet (HFD) (D12492, 60% kcals fat) for 8 weeks. Study mice were then divided into the following four groups of ten: vehicle controls, low dose C17:0-treated (5 mg/kg body weight), high-dose C17:0-treated (50 mg/kg body weight), and low-dose C15:0-treated (5 mg/kg body weight).
# Table 1 provides comparisons of cardiometabolic effects in diet-induced obese mice treated daily with oral pentadecanoic acid (5 mg/kg BW), heptadecanoic acid (5 and 50 mg/kg BW) for 12 weeks compared to vehicle controls. “Results” values are based on 6 h fasted samples.
# [4] = Half Maximal Effective Concentration (EC50), PPAR-α, Table 5
# [5] = CHO, read-out: Maximum Response
compound,measurement,setting,value
"CCCCCCCCCCCCCC(=O)O [C14:0, myristic acid]",EC50,human PPAR-γ,> 100 µM
same,EC50,"human PPAR-α; EC50, PPAR-alpha, Table 4",8.35 µM
same,EC50,human PPAR-α; [4],8.4 µM
"CCCCCCCCCCCCCC(C)C(=O)O (stereo not drawn) [2-methyl-C15:0, 2-methylpentadecanoic acid]",Cmin,[1]; 5 mg/kg single oral dose,660 ng/mL
same,Tlast,[1]; 5 mg/kg single oral dose,24 h
same,Cmin,[1]; 35 mg/kg single oral dose,3790 ng/mL
same,Tlast,[1]; 35 mg/kg single oral dose,24 h
same,AUC(0-t),"[1]; rat, 5 mg/kg single oral dose",28.4 µg·h/mL
same,Cmax,"[1]; rat, 5 mg/kg single oral dose, deuterated form",3590 ng/mL
same,AUC(0-t),"[1]; rat, 35 mg/kg single oral dose",182 µg·h/mL
same,bioavailability,"[1]; rat, 5 mg/kg, 5 mg/kg single oral dose, estimate using an AUC of 15 for a 1 mg/kg IV arm, read-out: % F",37.8%
same,bioavailability,"[1]; rat, 35 mg/kg, 35 mg/kg single oral dose, estimate using an AUC of 15 for a 1 mg/kg IV arm, read-out: % F",34.7%
same,bioavailability,"[1]; rat, 35 mg/kg, oral, rats, read-out: estimated plasma % F (bioavailability)",~35%
same,CD40,[2],lower
same,ICAM-1,[2],lower
same,IL-1α,[2],lower
same,IL-8,[2],lower
same,IP-10,[2],lower
same,IP-18,[2],lower
same,MCP-1,[2],lower
same,MIG,[2],lower
same,MMP-1,[2],lower
same,MMP-3,[2],lower
same,MMP-9,[2],lower
same,PAI-1,[2],lower
same,VCAM-1,[2],lower
same,eotaxin-3,[2],lower
same,keratin 8/18,[2],lower
same,secreted IgG,[2],lower
"CCCCCCCCCCCCCC(C)(C)C(=O)O [2,2-dimethyl-C15:0, 2,2-dimethylpentadecanoic acid]",CD38,[2],lower
same,CD99,[2],lower
same,ICAM-1,[2],lower
same,IL-1α,[2],lower
same,IL-8,[2],lower
same,IP-10,[2],lower
same,IP-18,[2],lower
same,MCP-1,[2],lower
same,MIG,[2],lower
same,MMP-1,[2],lower
same,MMP-3,[2],lower
same,MMP-9,[2],lower
same,PAI-1,[2],lower
same,VCAM-1,[2],lower
same,eotaxin-3,[2],lower
same,keratin 8/18,[2],lower
same,tissue factor,[2],lower
"CCCCCCCCCCCCCC(CC)C(=O)O (stereo not drawn) [2-ethyl-C15:0, 2-ethylpentadecanoic acid]",EC50,human PPAR-γ,51 µM
same,EC50 % improvement over FFA form,"human PPAR-γ; PPAR-γ, compared to free fatty acid form",>49%
same,PPAR-γ agonist activity (in words),human PPAR-γ; compared to the free fatty acid form,acquired PPAR-γ agonist activity
same,EC50,human PPAR-α; [4],1.2 µM
same,EC50 % improvement over FFA form,"human PPAR-α; PPAR-α, compared to free fatty acid form",90%
same,EC50,human PPAR-δ,0.3 µM
same,EC50 % improvement over FFA form,"human PPAR-δ; PPAR-δ, compared to free fatty acid form",89%
"CCCCCCCCCCCCCCCC(=O)O [C16:0, palmitic acid]",EC50,human PPAR-γ,> 100 µM
same,Emax,human PPAR-γ; [5],4.68%
same,EC50,"human PPAR-γ; PPAR-gamma, Table 7",> 100 µM
same,EC50,"human PPAR-γ; read-out: Half Maximal Effective Concentration (EC50), PPAR-γ, Table 5",> 100 µM
same,Emax,human PPAR-α; [5],56.1%
same,EC50,"human PPAR-α; EC50, PPAR-alpha, Table 4",27.3 µM
same,EC50,"human PPAR-α; EC50, PPAR-alpha, Table 7",27.3 µM
same,EC50,human PPAR-α; [4],27.3 µM
"CCCCCCCCCCCCCCCCC(=O)O [C17:0, heptadecanoic acid]",metabolic syndrome compared to vehicle controls (in words),"[3]; 12 weeks daily oral, C15:0 5 mg/kg, C17:0 5 and 50 mg/kg",trended toward attenuated metabolic syndrome
same,Cholesterol,[3]; 5 mg/kg daily oral,197 ± 31 mg/dL
same,Glucose,[3]; 5 mg/kg daily oral,296 ± 23 mg/dL
same,IL-6,[3]; 5 mg/kg daily oral,42 ± 40 pg/mL
same,Insulin,[3]; 5 mg/kg daily oral,7.4 ± 4.8 ng/mL
same,LDL-C,[3]; 5 mg/kg daily oral,9 ± 3 mg/dL
same,MCP-1,[3]; 5 mg/kg daily oral,86 ± 30 pg/mL
same,TNF-α,[3]; 5 mg/kg daily oral,3.7 ± 1.9 pg/mL
same,Cholesterol,[3]; 50 mg/kg daily oral,187 ± 44 mg/dL
same,Glucose,[3]; 50 mg/kg daily oral,282 ± 31 mg/dL
same,IL-6,[3]; 50 mg/kg daily oral,38 ± 32 pg/mL
same,Insulin,[3]; 50 mg/kg daily oral,6.8 ± 3.5 ng/mL
same,LDL-C,[3]; 50 mg/kg daily oral,8 ± 3 mg/dL
same,MCP-1,[3]; 50 mg/kg daily oral,53 ± 32 pg/mL
same,TNF-α,[3]; 50 mg/kg daily oral,1.5 ± 1.5 pg/mL
same,EC50,human PPAR-γ,> 100 µM
same,EC50,"human PPAR-α; EC50, PPAR-alpha, Table 4",> 100 µM
